Columns and labels:
[1] = Bioavailability testing in rats (24 h urinary H2G recovery); format: in vivo
Procedure: The bioavailability of compounds of the invention were compared to the parent compound H2G and other H2G derivatives in a rat model. Compounds of the invention and comparative compounds were administered, per oral (by catheter into the stomach), to multiples of three individually weighed animals to give 0.1 mmol/kg of the dissolved prodrug in an aqueous (Example 4, 5, Comparative example 1–3, 5, 8), peanut oil (Comparative examples 4, 9, 10) or propylene glycol (Example 1–3, 6–12, 17, Comparative example 6, 7) vehicle dependent on the solubility of the test compound ingredient. The animals were fasted from 5 hours before to approximately 17 hours after administration and were maintained in metabolic cages. Urine was collected for the 24 hours following administration and frozen until analysis. H2G was analysed in the urine using the HPLC/UV assay of Stahle & Oberg, Antimicrob Agents Chemother. 36 No 2, 339–342 (1992), modified as follows: samples upon thawing are diluted 1:100 in aq dist H2O and filtered through an amicon filter with centrifugation at 3000 rpm for 10 minutes. Duplicate 30 μl samples are chromatographed on an HPLC column; Zorbax SB-C18; 75×4.6 mm; 3.5 micron; Mobile phase 0.05M NH4PO4, 3–4% methanol, pH 3.3–3.5; 0.5 ml/min; 254 nm, retention time for H2G at MeOH 4% and pH 3.33, ˜12.5 min. Bioavailability is calculated as the measured H2G recovery from each animal averaged over at least three animals and expressed as a percentage of the averaged 24 hour urinary H2G recovery from a group of 4 individually weighed rats respectively injected i.v. jugularis with 0.1 mmol/kg H2G in a Ringer's buffer vehicle and analysed as above.
Comparative example 1 (H2G) was from the same batch as used for preparation of Examples 1 to 12. The preparation of Comparative example 2 (monoVal-H2G) and 3 (diVal-H2G) are shown in Examples 20 and 23. […] Comparative examples 5 & 8 (Val/Ac H2G) were prepared analogously to Example 4 using acetic anhydride with relevant monovaline H2G. Comparative example 6 (Ala/stearoyl H2G) was prepared analogously to Example 6 using N-t-Boc-L-alanine in step 4. Comparative example 7 (Gly/decanoyl) was prepared analogously to Example 5 but using the step a) intermediate made with N-t-Boc-L-glycine. The preparation of Comparative examples 9 and 10 is shown in Examples 24 and 25 respectively.

[2] = Plasma concentration assay in rats (H2G AUC oral vs i.v.); format: in vivo, male Sprague Dawley derived rats; settings: Table 1B; plasma drug assay in rats, 10 mg/kg oral in propylene glycol, H2G AUC vs 10 mg/kg i.v. H2G
Procedure: A plasma concentration assay was done in male Sprague Dawley derived rats. The animals were fasted overnight prior to dosing but were permitted free access to water. Each of the compounds evaluated was prepared as a solution/suspension in propylene glycol at a concentration corresponding to 10 mg H2G/ml and shaken at room temperature for eight hours. Groups of rats (at least 4 rats in each group) received a 10 mg/kg (1 ml/kg) oral dose of each of the compounds; the dose was administered by gavage. At selected time points after dosing (0.25, 0.5, 1, 1.5, 2, 4, 6, 9, 12, 15, and 24 hours after dosing), heparinized blood samples (0.4 ml/sample) were obtained from a tail vein of each animal. The blood samples were immediately chilled in an ice bath. Within two hours of collection, the plasma was separated from the red cells by centrifugation and frozen till analysis. The components of interest were separated from the plasma proteins using acetonitrile precipitation. Following lyophilisation, and reconstitution, the plasma concentrations were determined by reverse phase HPLC with fluorescence detection. The oral uptake of H2G and other test compounds was determined by comparison of the H2G area under the curve derived from the oral dose compared to that obtained from a 10 mg/kg intravenous dose of H2G, administered to a separate group of rats. The results are depicted in Table 1B above.

[3] = tested on: Herpes simplex virus-1 (HSV-1); experiment: Antiviral activity in HSV-1-infected mouse (survival); format: in vivo, mice; settings: 21 and 83 mg/kg three times daily p.o. for 5 days, relative to an equivalent dose of acyclovir
Procedure: Herpes simplex virus-1 (HSV-1)-infected mouse serves as an animal model to determine the efficacy of antiviral agents in vivo. Mice inoculated intraperitoneally with HSV-1 at 1000 times the LD50 were administered either with a formulation comprising the currently marketed anti-herpes agent acyclovir (21 and 83 mg/kg in a 2% propylene glycol in sterile water vehicle, three times daily, p.o.) or the compound of Example 29 (21 and 83 mg/kg in a 2% propylene glycol in sterile water vehicle, three times daily, p.o.) for 5 consecutive days beginning 5 hours after inoculation. The animals were assessed daily for deaths. […] In the legend, the compound of the invention is denoted Ex.29 and acyclovir is denoted ACV.

[4] = Table 2, rats, 0.1 mmol/kg per oral, 24 hour urinary H2G recovery as percentage of that after 0.1 mmol/kg H2G i.v.

Bioavailability [1, 4] [%] | Bioavailability ([1]; Table 1A, urinary recovery assay of H2G from rats, oral, see Biological Example 1) [%] | Bioavailability [2] [%] | SMILES | percentage of mice surviving the HSV-1 infection (FIG. 2) [3]
52 |  |  | CC(=O)CCCC(=O)OC[C@H](CCOC(=O)[C@@H](N)C(C)C)Cn1cnc2c(=O)[nH]c(N)nc21 [Example 10] | 
53 |  |  | CCCCCCCCCCCCCCCCCC(=O)OC[C@H](CCOC(=O)[C@@H](N)[C@@H](C)CC)Cn1cnc2c(=O)[nH]c(N)nc21 [Example 7] | 
8 | 8 | 3.8 | Nc1nc2c(ncn2CC(CO)CCO)c(=O)[nH]1 (stereo not shown) [Comparative example 1, 9-[4-hydroxy-(2-hydroxymethyl)butyl]guanine, reference compound] | 
 |  |  | CCCCCCCCCCCCCCCCCC(=O)OC[C@H](CCOC(=O)[C@@H](N)C(C)C)Cn1cnc2c(=O)[nH]c(N)nc21.Cl [Example 29, (R)-9-[(2-stearoyloxymethyl)-4-(L-valyloxy)butyl]guanine monohydrochloride] | significantly greater
7 |  |  | CCCCCCCCCCCCCCCCCC(=O)OCC[C@@H](CO)Cn1cnc2c(=O)[nH]c(N)nc21 [Comparative Example 10] | 
